This passage reports IC50 and Ki results from ChEMBL document CHEMBL1909046, “DrugMatrix in vitro pharmacology data”.

For experiment [1], the target named is T1, Alpha-1B adrenergic receptor (Rattus norvegicus, UniProt P15823).
T1 sequence (P15823 whole entry): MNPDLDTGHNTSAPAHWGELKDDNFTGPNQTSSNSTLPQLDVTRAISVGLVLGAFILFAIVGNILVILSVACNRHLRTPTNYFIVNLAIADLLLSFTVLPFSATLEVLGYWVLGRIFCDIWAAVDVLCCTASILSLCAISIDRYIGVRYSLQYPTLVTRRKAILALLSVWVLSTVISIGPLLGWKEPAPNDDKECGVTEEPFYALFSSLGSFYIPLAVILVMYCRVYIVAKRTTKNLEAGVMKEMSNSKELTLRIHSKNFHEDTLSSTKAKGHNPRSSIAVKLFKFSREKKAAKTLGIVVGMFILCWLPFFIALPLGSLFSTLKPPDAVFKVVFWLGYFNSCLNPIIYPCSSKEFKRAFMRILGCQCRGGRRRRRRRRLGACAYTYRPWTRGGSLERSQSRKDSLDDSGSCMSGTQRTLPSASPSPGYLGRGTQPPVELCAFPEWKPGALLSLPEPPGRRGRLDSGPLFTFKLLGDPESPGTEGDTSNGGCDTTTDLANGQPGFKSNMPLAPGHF
As to the kind of experiment: DRUGMATRIX: Alpha-1B adrenergic receptor radioligand binding (ligand: prazosin). It is filed as cell membranes, Wistar, Liver, Membrane. Particulars: Not Active = under 50% inhibition at 10 µM.

Experiment [2] deals with T2, Type-2 angiotensin II receptor (Homo sapiens, UniProt P50052).
T2 sequence (P50052 whole entry): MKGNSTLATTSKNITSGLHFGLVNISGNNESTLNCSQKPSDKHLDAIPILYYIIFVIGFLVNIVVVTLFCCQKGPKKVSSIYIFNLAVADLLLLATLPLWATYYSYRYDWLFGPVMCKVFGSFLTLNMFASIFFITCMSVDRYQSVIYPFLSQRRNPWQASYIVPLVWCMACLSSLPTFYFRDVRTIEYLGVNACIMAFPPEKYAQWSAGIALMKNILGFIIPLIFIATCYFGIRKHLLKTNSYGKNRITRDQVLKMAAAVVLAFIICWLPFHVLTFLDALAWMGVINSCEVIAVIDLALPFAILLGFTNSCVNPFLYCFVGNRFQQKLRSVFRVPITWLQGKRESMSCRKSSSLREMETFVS
It is filed as cell-based. The settings on record: cho-k1.

The nature of experiment [3]: DRUGMATRIX: beta-Lactamase enzyme inhibition (substrate: Nitrocefin). Details: species or system Bacillus cereus. Particulars: Not Active = under 50% inhibition at 10 µM.
The target of the next experiment is Carbonic anhydrase 2 (Homo sapiens, UniProt P00918). As to the kind of experiment: DRUGMATRIX: Carbonic Anhydrase II enzyme inhibition (substrate: 4-Nitrophenyl acetate (4-NPA)). The settings on record: Not Active = under 50% inhibition at 10 µM. It is filed as tissue-based, Erythrocyte.
The target of experiment [4] is Sodium-dependent dopamine transporter (Homo sapiens, UniProt Q01959). As to the kind of experiment: DRUGMATRIX: Dopamine Transporter radioligand binding (ligand: [125I] RTI-55). It is filed as cell membranes, CHO-K1, Membrane. Particulars: cho-k1; Not Active = under 50% inhibition at 10 µM.
The target of experiment [5] is T3, Neuropeptide Y receptor type 1 (Homo sapiens, UniProt P25929). Note: in other assays of this panel Not Active means under 50% inhibition at 10 µM.
T3 sequence (P25929 whole entry): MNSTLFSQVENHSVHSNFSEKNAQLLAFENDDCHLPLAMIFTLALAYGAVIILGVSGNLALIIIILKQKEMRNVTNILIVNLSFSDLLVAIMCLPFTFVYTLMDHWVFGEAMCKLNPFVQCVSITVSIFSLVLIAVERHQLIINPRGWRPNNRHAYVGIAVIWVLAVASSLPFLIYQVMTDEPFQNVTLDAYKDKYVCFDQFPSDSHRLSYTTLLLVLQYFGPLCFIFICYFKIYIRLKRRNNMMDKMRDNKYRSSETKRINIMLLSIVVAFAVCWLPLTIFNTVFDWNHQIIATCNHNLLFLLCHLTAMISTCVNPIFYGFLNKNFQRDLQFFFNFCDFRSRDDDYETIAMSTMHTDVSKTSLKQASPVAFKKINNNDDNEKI
In kind it is cell membranes, Membrane. Particulars: sk-n-mc.

In another experiment the target is T4, Cathepsin G (Homo sapiens, UniProt P08311).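 Note: inhibition of Cathepsin G enzyme activity, tested on an AMC-conjugated peptide substrate; in other assays of this panel Not Active means under 50% inhibition at 10 µM.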
T4 sequence (P08311 whole entry): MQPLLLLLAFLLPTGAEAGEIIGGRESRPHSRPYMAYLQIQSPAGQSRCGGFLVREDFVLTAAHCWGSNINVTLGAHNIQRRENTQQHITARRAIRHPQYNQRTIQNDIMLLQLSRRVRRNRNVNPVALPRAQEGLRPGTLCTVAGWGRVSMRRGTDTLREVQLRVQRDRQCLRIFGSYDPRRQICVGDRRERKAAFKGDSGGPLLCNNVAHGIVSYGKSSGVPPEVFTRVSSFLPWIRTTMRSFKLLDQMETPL
It is filed as tissue-based. The settings on record: neutrophil.

Sodium-dependent dopamine transporter, sequence (Q01959 whole entry): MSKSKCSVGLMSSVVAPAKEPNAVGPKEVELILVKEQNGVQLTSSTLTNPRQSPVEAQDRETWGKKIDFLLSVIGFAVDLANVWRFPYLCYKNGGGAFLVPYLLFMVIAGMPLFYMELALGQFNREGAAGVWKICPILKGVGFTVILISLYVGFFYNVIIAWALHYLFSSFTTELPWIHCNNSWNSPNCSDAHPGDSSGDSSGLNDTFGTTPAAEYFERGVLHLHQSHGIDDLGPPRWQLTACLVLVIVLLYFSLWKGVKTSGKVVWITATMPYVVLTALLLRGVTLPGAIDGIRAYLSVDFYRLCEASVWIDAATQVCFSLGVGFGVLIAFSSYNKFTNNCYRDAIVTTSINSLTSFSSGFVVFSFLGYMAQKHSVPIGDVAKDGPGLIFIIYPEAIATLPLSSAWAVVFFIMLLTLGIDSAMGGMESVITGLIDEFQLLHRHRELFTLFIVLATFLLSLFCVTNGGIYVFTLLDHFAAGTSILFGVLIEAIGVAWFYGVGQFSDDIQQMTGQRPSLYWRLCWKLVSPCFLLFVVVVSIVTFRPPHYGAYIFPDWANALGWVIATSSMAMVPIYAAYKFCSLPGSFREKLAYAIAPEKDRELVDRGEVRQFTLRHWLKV

Consider `COc1cc(N)nc2[nH]c(-c3ccc(F)cc3)c(-c3ccncc3)c12`, for which the IC50 result (in experiment [1]; in experiment [2]; in experiment [3]; against Carbonic anhydrase 2 (erythrocyte); in experiment [4]; in experiment [5]) was “Not Active” each time. The IC50 entry at Cathepsin G is “Not Active”. Also, in experiment [3], the Ki entry is “Not Active”.

Take `CNS(=O)(=O)Cc1ccc2[nH]cc(CCN(C)C)c2c1`: the IC50 entry (in experiment [1]; in experiment [2]; in experiment [3]; against Carbonic anhydrase 2 (erythrocyte); in experiment [4]; in experiment [5]) was “Not Active” throughout. Besides, at Cathepsin G, the IC50 result is listed as “Not Active”. Moreover, the inhibitory constant (Ki) entry in experiment [3] is on record as “Not Active”.

Take `CCCc1nn(C)c2c(=O)[nH]c(-c3cc(S(=O)(=O)N4CCN(C)CC4)ccc3OCC)nc12`: the concentration for half-maximal inhibition (IC50) in experiment [1] (read-out: IC50) was 1460 nM; in experiment [2] it was “Not Active”; in experiment [3], “Not Active”; against Carbonic anhydrase 2 (erythrocyte), “Not Active”; in experiment [4] it was “Not Active”; in experiment [5], “Not Active”. In addition, at Cathepsin G, the 50% inhibitory concentration (IC50) entry is “Not Active”. Besides, the Ki in experiment [1] (read-out: Ki) is 806 nM; in experiment [3] it was “Not Active”.

Regarding `COc1ccc(/C=C/C(=O)Nc2ccccc2C(=O)O)cc1OC`, the IC50 entry (in experiment [1]; in experiment [2]; in experiment [3]; on Carbonic anhydrase 2 (erythrocyte); in experiment [4]; in experiment [5]) was “Not Active” each time. The IC50 entry against Cathepsin G is “Not Active”. Further, the Ki entry in experiment [3] is recorded as “Not Active”.

Consider `CCOC(N)=O`, for which the IC50 result (in experiment [1]; in experiment [2]; in experiment [3]; at Carbonic anhydrase 2 (erythrocyte); in experiment [4]; in experiment [5]) was “Not Active” each time. Further, the IC50 result against Cathepsin G is “Not Active”. In addition, the Ki result in experiment [3] was “Not Active”.

On to `CC(=O)Nc1nnc(S(N)(=O)=O)s1` [ACETAZOLAMIDE], for which the IC50 result (in experiment [2]; in experiment [4]; in experiment [5]; against Cathepsin G) was “Not Active” in each case.

For `O=c1[nH]c2ccccc2n1CCCN1CCC(n2c(=O)[nH]c3cc(Cl)ccc32)CC1` [DOMPERIDONE], the IC50 result (in experiment [2]; against Carbonic anhydrase 2 (erythrocyte); in experiment [4]; in experiment [5]; at Cathepsin G) was “Not Active” in each case.

Turning to `CC1=C(CC(=O)O)c2cc(F)ccc2/C1=C\c1ccc(S(C)(=O)=O)cc1` [EXISULIND], the IC50 entry (in experiment [1]; in experiment [2]; in experiment [3]; against Carbonic anhydrase 2 (erythrocyte); in experiment [4]; in experiment [5]) was “Not Active” throughout. Moreover, the IC50 result against Cathepsin G is reported as “Not Active”. Besides, the inhibition constant Ki result in experiment [3] is listed as “Not Active”.

In the case of `CC(C)OC(=O)C(C)(C)Oc1ccc(C(=O)c2ccc(Cl)cc2)cc1` [FENOFIBRATE], the IC50 result (in experiment [2]; against Carbonic anhydrase 2 (erythrocyte); in experiment [5]) was “Not Active” each time. The Ki result on Cathepsin G is recorded as “Not Active”.

For the compound `OCCN1CCN(CCCN2c3ccccc3Sc3ccc(C(F)(F)F)cc32)CC1` [FLUPHENAZINE], the IC50 entry (in experiment [2]; on Carbonic anhydrase 2 (erythrocyte); in experiment [5]; against Cathepsin G) was “Not Active” throughout.

As to `CN1C2CCCC1CC(NC(=O)c1nn(C)c3ccccc13)C2` (stereo not given) [GRANISETRON], the IC50 result (in experiment [2]; against Carbonic anhydrase 2 (erythrocyte); in experiment [4]; in experiment [5]; against Cathepsin G) was “Not Active” in each case.

With `Nc1nc2c(c(=O)[nH]1)N(C=O)C(CNc1ccc(C(=O)N[C@@H](CCC(=O)O)C(=O)O)cc1)CN2` (stereo not given in full) [LEUCOVORIN], the IC50 result (in experiment [1]; in experiment [2]; in experiment [3]; against Carbonic anhydrase 2 (erythrocyte); in experiment [4]; in experiment [5]) was “Not Active” in each case. In addition, the IC50 result against Cathepsin G is reported as “Not Active”. Besides, in experiment [3], the inhibition constant (Ki) entry is “Not Active”.

As to `C[C@@H](O)[C@H]1C(=O)N2C(C(=O)O)=C(S[C@@H]3CN[C@H](C(=O)N(C)C)C3)[C@H](C)[C@H]12` [MEROPENEM], the IC50 entry (in experiment [1]; in experiment [2]; in experiment [3]; against Carbonic anhydrase 2 (erythrocyte); in experiment [4]; in experiment [5]) was “Not Active” in each case. Besides, the IC50 entry against Cathepsin G is reported as “Not Active”. In experiment [3], the Ki result was “Not Active”.

`CC[C@@H](CO)NC(=O)[C@@H]1C=C2c3cccc4c3c(cn4C)C[C@H]2N(C)C1` [METHYSERGIDE]: the 50% inhibitory concentration (IC50) result (in experiment [2]; at Carbonic anhydrase 2 (erythrocyte); in experiment [4]; in experiment [5]; against Cathepsin G) was “Not Active” in each case.

On to `CCN(CC)CC#CCOC(=O)C(O)(c1ccccc1)C1CCCCC1` (stereo not given) [OXYBUTYNIN], for which the IC50 result (in experiment [2]; against Carbonic anhydrase 2 (erythrocyte); in experiment [5]; against Cathepsin G) was “Not Active” throughout.

Consider `O=P(O)(O)C(O)(Cc1cccnc1)P(=O)(O)O` [RISEDRONIC ACID], for which the IC50 result (in experiment [1]; in experiment [2]; in experiment [3]; against Carbonic anhydrase 2 (erythrocyte); in experiment [4]; in experiment [5]) was “Not Active” throughout. The IC50 entry at Cathepsin G is “Not Active”. In experiment [3], the Ki entry was “Not Active”.

With `CN(CCOc1ccc(CC2SC(=O)NC2=O)cc1)c1ccccn1` (stereo not given) [ROSIGLITAZONE], the IC50 result in experiment [1] is “Not Active”; in experiment [2], “Not Active”; in experiment [3], “Not Active”; at Carbonic anhydrase 2 (read-out: IC50) it was 4070 nM; in experiment [4], “Not Active”; in experiment [5], “Not Active”. The IC50 result at Cathepsin G is given as “Not Active”. Also, the inhibition constant (Ki) entry in experiment [3] is “Not Active”.

With `C=C(C)[C@H]1Cc2c(ccc3c2O[C@@H]2COc4cc(OC)c(OC)cc4[C@@H]2C3=O)O1` [ROTENONE], the IC50 result (in experiment [1]; in experiment [2]; in experiment [3]; against Carbonic anhydrase 2 (erythrocyte); in experiment [4]; in experiment [5]) was “Not Active” each time. The IC50 entry against Cathepsin G was “Not Active”. Besides, in experiment [3], the inhibition constant (Ki) entry is “Not Active”.

`C#CCN(C)[C@H](C)Cc1ccccc1` [SELEGILINE]: the IC50 result (in experiment [1]; in experiment [2]; in experiment [3]; against Carbonic anhydrase 2 (erythrocyte); in experiment [4]; in experiment [5]) was “Not Active” throughout. Besides, the IC50 result against Cathepsin G is given as “Not Active”. Also, the Ki result in experiment [3] is “Not Active”.

For the compound `Nc1ccc(S(=O)(=O)Nc2ncccn2)cc1` [SULFADIAZINE], the IC50 entry (in experiment [1]; in experiment [2]; in experiment [3]; in experiment [4]; in experiment [5]; against Cathepsin G) was “Not Active” in each case. Further, the Ki result in experiment [3] was “Not Active”.

For `O=c1n(CCCN2CCN(c3cccc(Cl)c3)CC2)nc2ccccn12` [TRAZODONE], the IC50 entry (in experiment [2]; against Carbonic anhydrase 2 (erythrocyte); in experiment [4]; in experiment [5]; at Cathepsin G) was “Not Active” in each case.

For orientation: IC50 means the concentration at which inhibition is half-maximal. The Ki is the equilibrium dissociation constant of an inhibitor or competing ligand from its target.
